# pEC50: −log10 of the molar value. Where “and” joins values, the source holds several entries; their conditions need not be identical. Identical values can stand only once. Like-named read-outs stand apart in the source and are kept apart here.
# How the values were obtained:
# CNGB1b = system: CNGB1b; design: method as in Nache et al., 2012; key: +: ligand binding to the respective modulatory subunits was either observed or not; −: ligand binding to the respective modulatory subunits was either observed or not; conditions: 10 μM; construct CNGB1b; ref Nache et al., 2012; cited from earlier work
# CNGA2RE:B1b = molecular target: T1, CNGA2RE:B1b (Rattus norvegicus, UniProt A0A8I5ZN27+Q00195, R538E); test: Ligand binding, confocal patch-clamp fluorometry; design: key to Ligand binding to CNGB1b: +: ligand binding to the respective modulatory subunits was either observed or not; −: ligand binding to the respective modulatory subunits was either observed or not; conditions: 10 μM; construct CNGA2RE:B1b
# T1 construct: expressed in transfected cells; host or cells: Xenopus laevis oocytes (cRNA injection), excised patches
# Excerpt: (§1) The channels to be studied were expressed in Xenopus oocytes. We first tested the subunit composition in our channels when coexpressing different combinations of subunits by single-channel recordings. For CNGA2:A4, CNGA2:B1b and CNGA2:A4:B1b channels we exclusively obtained the specific and easily distinguishable single-channel activity reported earlier when injecting respective amounts of RNA[7][13]. We therefore assumed that the channels formed had always the expected subunit composition. The specific binding of cyclic nucleotides and the activation of the CNG channels were measured in parallel by means of confocal patch-clamp fluorometry in excised patches, using fluorescent cyclic nucleotide derivatives. The method has been described previously.
# (§2) To study ligand binding to the CNGB1b subunit selectively, the binding domain of the CNGA2 subunits was disabled by either the point mutation R538E (red crosses in the cartoons) or T539M (blue crosses in the cartoons)[13][20]. […] To this end, CNGB1b was coexpressed with CNGA2RE.
# (§3) The ligand binding was measured in macropatches by patch-clamp fluorometry[41][42] combined with confocal microscopy. […] Recordings were performed with an LSM 510 or 710 confocal microscope (Zeiss, Jena, Germany) and were triggered by the ISO3 software (MFK, Niedernhausen, Germany). To distinguish between the fluorescence of the unbound ligands from that of the bound ligands, a second dye, DY647 (Dyomics, Jena, Germany), was added to the bath solution. The 543-nm and 633-nm lines of a He-Ne laser were used to excite fcAMP/fcGMP and DY647, respectively. The method of confocal patch-clamp fluorometry has been described in detail previously.
# CNGA2TM:B1b = molecular target: T2, CNGA2TM:B1b (Rattus norvegicus, UniProt A0A8I5ZN27+Q00195, T539M); test: Ligand binding, confocal patch-clamp fluorometry; design: key to Ligand binding to CNGB1b: +: ligand binding to the respective modulatory subunits was either observed or not; −: ligand binding to the respective modulatory subunits was either observed or not
# T2 construct: expressed in transfected cells; host or cells: Xenopus laevis oocytes (cRNA injection), excised patches
# Excerpt: as §1, §2, §3
# CNGA2TM:A4 channels = system: CNGA2TM:A4 channels; design: method as in PMID 22786723; conditions: cited from earlier work
# CNGA2TM:A4RE:B1b = molecular target: T3, CNGA2TM:A4RE:B1b (Rattus norvegicus, UniProt A0A8I5ZN27+Q00195+Q64359, R430E/T539M); test: Ligand binding, confocal patch-clamp fluorometry; design: key to Ligand binding to CNGA4 / Ligand binding to CNGB1b: +: ligand binding to the respective modulatory subunits was either observed or not; −: ligand binding to the respective modulatory subunits was either observed or not
# T3 construct: expressed in transfected cells; host or cells: Xenopus laevis oocytes (cRNA injection), excised inside-out patches
# Excerpt: as §1
# To verify the hypothesis that the CNGB1b subunit in CNGA2:A4:B1b channels binds cyclic nucleotides, we coexpressed CNGB1b with CNGA4RE and either CNGA2RE or CNGA2TM and measured ligand binding in the presence of 10 μM fcGMP. […] To verify the specificity of the binding to the CNGB1b subunit in these heterotetrameric channels, we coexpressed the CNGB1bRE subunit with CNGA2RE and CNGA4RE.
# as §3
# [1] = system: homotetrameric CNGA2RE (R538E) channels; design: method as in Nache et al., 2012; conditions: Equation 1, ref Nache et al., 2012; cited from earlier work
# [2] = molecular target: T4, CNGA2RE:A4:B1bRE channels (Rattus norvegicus, UniProt A0A8I5ZN27+Q00195+Q64359, R1106E/R538E); test: Concentration-activation relationship, patch-clamp; assay type: biochemical; conditions: for pEC50: Equation 2, +100 mV
# T4 construct: expressed in transfected cells; host or cells: Xenopus laevis oocytes (cRNA injection), excised inside-out patches
# Description: In order to determine the apparent affinity of the modulatory subunits in heterotetrameric CNGA2:A4:B1b channels for cGMP, we coexpressed each of them with disabled neighbored subunits, generating themselves activation effects only at much higher ligand concentrations. In case of two well-separated current components, this would allow us to determine the EC50 value for the CNGB1b and CNGA4 subunit in functional heterotetrameric channels.
# Patch-clamp experiments were performed using an Axopatch 200B amplifier (Molecular Devices LLC, CA, U.S.A.) in the inside-out configuration. The patch pipettes for recording of macroscopic currents were pulled from borosilicate glass tubing (outer diameter 2.0 mm, inner diameter 1.0 mm; Hilgenberg GmbH, Germany). The initial resistance was 0.7–1.3 MΩ. The patches were formed as pushed inside-out patches. […] Cyclic nucleotide concentration jumps were performed using a double-barreled glass pipette mounted on a piezo-driven device. Intracellular (bath) and extracellular (pipette) solutions contained (mM) 150 KCl, 1 EGTA, 5 Hepes, pH = 7.4 with KOH. […] Currents in the absence of the cyclic nucleotide were subtracted. All patches included in this study were first tested for channel expression in the presence of a saturating ligand concentration. Only patches with large current, i.e. a large number of channels, were included in our statistics. The currents were measured at +10 mV or, if mentioned, at +100 mV.
# Fits of equations to data points were performed with the 8.1G® software (OriginLab Corporation, Northampton, U.S.A.). Concentration-activation relationships were obtained by relating the actual current amplitude, I, to the maximum current amplitude elicited by a saturating concentration of ligand, Imax, and plotting this ratio as function of the ligand concentration, x. The concentration-activation data were fitted using the Hill equation
# For the concentration-activation relationships showing two components, the data points were fitted to the sum of two Hill equations according to
# EC50,h, EC50,l, Hh, and Hl are the ligand concentration of half maximum current and the Hill coefficient for the high and low affinity component, respectively. a and (1-a) denote the contribution of the high and low affinity component, respectively.
# [3] = 10 μM, construct CNGA2TM:A4RE:B1b
# T4 sequence (Q00195 whole entry R538E): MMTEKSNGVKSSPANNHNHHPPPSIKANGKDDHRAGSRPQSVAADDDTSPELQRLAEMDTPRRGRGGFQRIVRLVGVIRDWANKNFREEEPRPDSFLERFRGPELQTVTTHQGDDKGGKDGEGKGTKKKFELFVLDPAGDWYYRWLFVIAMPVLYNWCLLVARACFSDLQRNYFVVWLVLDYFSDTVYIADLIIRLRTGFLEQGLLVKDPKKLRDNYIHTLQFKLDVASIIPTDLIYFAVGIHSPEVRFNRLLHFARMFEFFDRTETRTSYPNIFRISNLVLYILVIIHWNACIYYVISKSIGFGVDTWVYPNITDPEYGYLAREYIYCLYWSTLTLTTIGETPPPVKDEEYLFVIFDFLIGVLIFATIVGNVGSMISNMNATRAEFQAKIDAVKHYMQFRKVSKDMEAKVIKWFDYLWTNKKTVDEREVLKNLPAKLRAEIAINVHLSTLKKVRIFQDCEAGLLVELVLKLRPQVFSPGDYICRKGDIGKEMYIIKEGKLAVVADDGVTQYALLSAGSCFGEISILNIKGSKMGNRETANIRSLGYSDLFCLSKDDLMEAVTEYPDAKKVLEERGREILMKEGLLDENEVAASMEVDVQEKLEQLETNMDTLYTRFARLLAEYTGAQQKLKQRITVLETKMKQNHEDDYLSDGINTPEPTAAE
# T4 sequence (Q64359 whole entry): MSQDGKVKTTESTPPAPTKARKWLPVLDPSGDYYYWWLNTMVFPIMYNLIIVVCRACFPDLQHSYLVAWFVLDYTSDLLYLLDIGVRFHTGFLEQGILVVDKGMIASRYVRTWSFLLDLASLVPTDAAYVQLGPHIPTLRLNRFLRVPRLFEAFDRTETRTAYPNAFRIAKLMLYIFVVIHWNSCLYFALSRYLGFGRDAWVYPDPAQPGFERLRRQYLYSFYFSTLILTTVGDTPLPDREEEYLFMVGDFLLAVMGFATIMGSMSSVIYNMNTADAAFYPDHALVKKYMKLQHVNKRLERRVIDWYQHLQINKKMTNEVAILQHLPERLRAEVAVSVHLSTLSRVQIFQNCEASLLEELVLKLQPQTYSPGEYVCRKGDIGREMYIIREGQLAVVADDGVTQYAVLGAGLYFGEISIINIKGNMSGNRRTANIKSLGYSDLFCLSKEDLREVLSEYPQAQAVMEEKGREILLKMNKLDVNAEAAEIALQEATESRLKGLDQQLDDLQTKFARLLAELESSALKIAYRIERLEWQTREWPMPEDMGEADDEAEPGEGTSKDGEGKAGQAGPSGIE
# T4 sequence (A0A8I5ZN27 1-858 isoform A0A8I5ZN27-2 R657E): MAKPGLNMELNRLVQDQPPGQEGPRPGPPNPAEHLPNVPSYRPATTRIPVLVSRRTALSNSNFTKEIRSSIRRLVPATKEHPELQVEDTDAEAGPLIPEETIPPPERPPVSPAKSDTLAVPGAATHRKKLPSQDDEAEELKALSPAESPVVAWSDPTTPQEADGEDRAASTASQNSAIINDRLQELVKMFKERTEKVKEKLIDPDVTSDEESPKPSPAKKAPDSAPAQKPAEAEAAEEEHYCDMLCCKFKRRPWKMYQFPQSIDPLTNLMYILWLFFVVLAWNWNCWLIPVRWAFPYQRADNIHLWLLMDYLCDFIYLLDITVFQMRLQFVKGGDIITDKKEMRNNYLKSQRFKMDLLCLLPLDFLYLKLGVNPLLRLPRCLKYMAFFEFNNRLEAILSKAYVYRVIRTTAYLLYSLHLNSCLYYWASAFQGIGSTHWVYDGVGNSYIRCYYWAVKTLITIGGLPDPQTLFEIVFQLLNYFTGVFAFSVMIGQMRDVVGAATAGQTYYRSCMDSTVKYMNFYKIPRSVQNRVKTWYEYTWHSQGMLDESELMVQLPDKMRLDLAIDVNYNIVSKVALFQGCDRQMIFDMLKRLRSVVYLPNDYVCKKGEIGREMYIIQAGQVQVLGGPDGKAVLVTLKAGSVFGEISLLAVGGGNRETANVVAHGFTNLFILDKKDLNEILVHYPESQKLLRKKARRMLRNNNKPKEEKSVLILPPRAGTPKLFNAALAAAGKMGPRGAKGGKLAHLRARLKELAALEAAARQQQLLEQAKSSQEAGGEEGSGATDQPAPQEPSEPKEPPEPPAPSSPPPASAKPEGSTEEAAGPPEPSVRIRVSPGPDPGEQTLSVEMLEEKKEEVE
# T3 sequence (Q00195 whole entry T539M): as the sequence (Q00195 whole entry R538E) above, with E538R, T539M counted along it
# T3 sequence (Q64359 whole entry R430E): as the sequence (Q64359 whole entry) above, with R430E counted along it
# T3 sequence (A0A8I5ZN27 1-858 isoform A0A8I5ZN27-2, stated change not applied): as the sequence (A0A8I5ZN27 1-858 isoform A0A8I5ZN27-2 R657E) above, with E657R counted along it
# T2 sequence (Q00195 whole entry T539M): as the sequence (Q00195 whole entry R538E) above, with E538R, T539M counted along it
# T2 sequence (A0A8I5ZN27 1-858 isoform A0A8I5ZN27-2, stated change not applied): as the sequence (A0A8I5ZN27 1-858 isoform A0A8I5ZN27-2 R657E) above, with E657R counted along it
# T1 sequence (Q00195 whole entry R538E): as the sequence (Q00195 whole entry R538E) above
# T1 sequence (A0A8I5ZN27 1-858 isoform A0A8I5ZN27-2, stated change not applied): as the sequence (A0A8I5ZN27 1-858 isoform A0A8I5ZN27-2 R657E) above, with E657R counted along it
Compound,Ligand binding to CNGB1b (CNGB1b),Ligand binding to CNGB1b (CNGA2RE:B1b),"binding to CNGB1b (in words) (CNGA2TM:B1b; 10 μM fcGMP, coexpressed with disabled CNGA2 (CNGA2TM))","Ligand binding to CNGB1b (CNGA2TM:B1b; 10 μM, construct CNGA2TM:B1b)",degree of activation induced by binding to CNGA4 (CNGA2TM:A4 channels; CNGA2TM:A4 channels),"pEC50 (CNGA2TM:A4 channels; in the presence of CNGA2TM only, read-out: EC50,h value for CNGA4)","binding to the CNGB1b subunit (in words) (CNGA2TM:A4RE:B1b; 10 μM fcGMP, CNGB1b with CNGA4RE and CNGA2TM)",Ligand binding to CNGA4 (CNGA2TM:A4RE:B1b; [3]),Ligand binding to CNGB1b (CNGA2TM:A4RE:B1b; [3]),pEC50 [1],"H1 ([2]; Hill coefficient of low affinity component, +100 mV)","a (contribution of the high affinity component) ([2]; fraction, Equation 2)","pEC50 ([2]; high affinity component (action of CNGA4), read-out: EC50,h)","pEC50 ([2]; low affinity component, read-out: EC50,l)",maximum contribution of CNGA4 to channel activation (a) ([2]; of the maximum channel activity generated by all subunits)
8-[DY-547]-AET-cGMP [fcGMP],−,−,does not bind,−,~ 12%,5.17,robust binding,−,+,,,,,,
Nc1nc2c(ncn2[C@@H]2O[C@@H]3COP(=O)(O)O[C@H]3[C@H]2O)c(=O)[nH]1 [cGMP],,,,,,,,,,3.22,1.1,0.24,5.05,3.44,24.6% and ~ 24%

# — PMC4942689, “Deciphering the function of the CNGB1b subunit in olfactory CNG channels” (Scientific Reports, 2016)
